In publication PMC7592376, “Design and synthesis of multi-target directed 1,2,3-triazole-dimethylaminoacryloyl-chromenone derivatives with potential use in Alzheimer's disease” (BMC Chemistry, 2020):
Where “and” joins values, the source holds several entries; their conditions need not be identical. Identical values can stand only once. Like-named read-outs stand apart in the source and are kept apart here.

Assays:
BuChE [1] = biological target: T1, BuChE (Homo sapiens, UniProt P06276); test: biochemical; conditions: mean ± SD, three independent experiments; read-out: BuChEI IC50
T1 construct: purchased Aldrich
T1 sequence (P06276 29-602): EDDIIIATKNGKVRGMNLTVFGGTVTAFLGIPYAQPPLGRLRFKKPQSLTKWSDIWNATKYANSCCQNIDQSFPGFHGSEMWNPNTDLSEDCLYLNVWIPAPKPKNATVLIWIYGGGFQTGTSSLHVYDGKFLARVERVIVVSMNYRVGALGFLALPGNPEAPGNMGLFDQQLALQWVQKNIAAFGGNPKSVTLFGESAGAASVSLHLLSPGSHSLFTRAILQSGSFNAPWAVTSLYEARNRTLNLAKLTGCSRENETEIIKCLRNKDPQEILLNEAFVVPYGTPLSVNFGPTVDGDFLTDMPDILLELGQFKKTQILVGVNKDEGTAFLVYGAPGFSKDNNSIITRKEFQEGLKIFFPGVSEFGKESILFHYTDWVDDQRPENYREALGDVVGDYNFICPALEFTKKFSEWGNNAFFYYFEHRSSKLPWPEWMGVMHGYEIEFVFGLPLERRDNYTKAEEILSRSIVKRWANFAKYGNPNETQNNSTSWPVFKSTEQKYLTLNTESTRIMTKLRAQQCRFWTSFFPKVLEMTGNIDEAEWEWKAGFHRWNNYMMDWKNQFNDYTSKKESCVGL
Method: (§1) All enzymes and reagents required for the assay were obtained from Aldrich. […] Each well contained 50 µL potassium phosphate buffer (KH2PO4/ K2HPO4, 0.1 M, pH 8), 25 µL sample solution, and 25 µL enzyme (final concentration 0.22 U/mL in buffer). Control experiments were also performed under the same conditions without enzyme. After incubation at room temperature for 15 min, 125 µL DTNB (3 mM in buffer) was added and the characterization of enzymatic reaction was spectrometrically performed at 405 nm followed by the addition of substrate (ATCI 3 mM in water) after 5–10 min. The IC50 values were determined graphically from inhibition curves (log inhibitor concentration vs. percent of inhibition). Also, the same method was used for the BuChE inhibition assay.

AChE [2] = biological target: T2, AChE (Electrophorus electricus, UniProt O42275); test: biochemical; conditions: mean ± SD, three independent experiments; read-out: AChEI IC50
T2 construct: purchased Aldrich
T2 sequence (O42275 24-633): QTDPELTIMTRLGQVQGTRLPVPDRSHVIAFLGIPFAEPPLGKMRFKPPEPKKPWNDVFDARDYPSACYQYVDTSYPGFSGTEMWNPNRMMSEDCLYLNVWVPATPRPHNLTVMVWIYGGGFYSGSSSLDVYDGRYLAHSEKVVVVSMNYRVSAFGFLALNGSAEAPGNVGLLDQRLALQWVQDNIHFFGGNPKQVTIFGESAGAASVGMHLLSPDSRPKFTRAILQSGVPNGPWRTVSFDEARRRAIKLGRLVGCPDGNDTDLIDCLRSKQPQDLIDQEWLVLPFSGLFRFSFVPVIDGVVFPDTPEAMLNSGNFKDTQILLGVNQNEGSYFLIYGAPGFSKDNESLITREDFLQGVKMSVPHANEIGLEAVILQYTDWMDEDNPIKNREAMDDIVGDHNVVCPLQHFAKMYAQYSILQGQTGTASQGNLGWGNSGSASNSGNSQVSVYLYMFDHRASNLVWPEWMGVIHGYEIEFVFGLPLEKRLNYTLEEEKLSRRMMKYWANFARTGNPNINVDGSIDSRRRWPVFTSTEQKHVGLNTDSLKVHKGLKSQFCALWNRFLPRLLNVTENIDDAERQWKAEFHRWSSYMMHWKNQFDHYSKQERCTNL
Method: as §1

BuChE [3] = biological target: T1, BuChE; design: method as in PMID 29421707, PMID 27914694, PMID 31327094, doi:10.1007/s00044-018-2187-8, PMID 25531792; conditions: literature compounds of Fig. 1; read-out: BuChEI, IC50; cited from earlier work
AChE [4] = biological target: T2, AChE; design: method as in PMID 29421707, PMID 27914694, PMID 25531792; conditions: literature compounds of Fig. 1; read-out: AChEI, IC50; cited from earlier work
[5] = biological target: AChE-induced Aβ1-40 peptide aggregation (Homo sapiens, UniProt P05067); test: biochemical; conditions: read-out: % Inhibition AChE-induced Aβ aggregation
Chain of AChE-induced Aβ1-40 peptide aggregation (P05067 672-711): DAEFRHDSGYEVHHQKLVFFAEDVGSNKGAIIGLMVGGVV
Method: (§2) Inhibition of Aβ1-42 self-aggregation was measured by ThT fluorescence assay. The details of the method were reported in our previous study. To study Aβ42 aggregation inhibition, a reported method, based on the fluorescence emission of ThT was followed. Briefly, the mixtures of Aβ1-40 peptide (Bachem company, Switzerland) and AChE (Sigma, Electrophorus electricus), in the presence or absence of the test inhibitor were incubated for 24 h at room temperature.

Aβ1-42 = Aβ1-42 (Homo sapiens, UniProt P05067); test: biochemical; conditions: read-out: % Inhibition self-induced Aβ1–42 aggregation
Chain of Aβ1-42 (P05067 672-713 limits assumed): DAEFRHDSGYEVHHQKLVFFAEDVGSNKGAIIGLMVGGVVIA
Method: as §2

Aβ [6] = test system: Aβ; design: method as in PMID 29407958, PMID 29763808, PMID 32131034; conditions: at 100 μM; cited from earlier work
Aβ [7] = test system: Aβ; design: method as in PMID 29407958, PMID 29763808, PMID 32131034; conditions: at 25 μM; cited from earlier work
[8] = Metal chelation studies by UV spectra and molar ratio method; type: physicochemical
Method: The stoichiometry of complex 10h-Cu^2+ was also studied (Fig. 4) due to important role of copper ions in AD [38]. The concentration of the test compound 10h was 20 μM and the final concentration of Cu^2+ ranged from 0–44 μM with 4 μM intervals at 303.5 nm.
The plot was obtained by the corresponding absorption against the mole fraction of Cu^2+ to ligand 10h. According to the plot, the ratio 1:1 complexation ration of 10h-Cu^2+ can be seen at the fracture point of the plot with the mole fraction of […].
To study the metal chelating ability, the solutions of compound 10h and Fe^2+, Cu^2+, and Zn^2+ ions (from FeSO4, CuCl2.2H2O, and ZnCl2) were prepared in methanol. The mixture of compound 10h (1 mL) and the test ion solutions (1 mL) with the same final concentration of 20 µM in a 1 cm quartz cuvette was incubated at room temperature for 30 min. Then, the absorption spectra were recorded in the range of 200–600 nm.
The stoichiometry of complex 10h-Cu^2+ was also studied using the molar ratio method. The concentration of compound 10h was 20 μM and the final concentration of Cu^2+ ranged from 0–44 μM with 4 μM intervals at 303.5 nm. The plot was obtained by the corresponding absorption versus mole fraction of Cu^2+ to ligand 10h. All experiments were performed in triplicate.

BuChE [9] = biological target: T1, BuChE; test: Kinetic study of BuChE inhibition (Lineweaver-Burk and secondary plot); type: biochemical
Method: The kinetic study was performed to investigate the mechanism of inhibition by compound 10h against BuChE.
The Lineweaver–Burk reciprocal plot was provided by plotting 1/V against 1/[S] at variable concentrations of butyrylthiocholine as the substrate (187.5, 750, 1500, 3000 µM).

PC12 cells = test: Neuroprotection against Aβ25-35-induced damage, MTT assay; type: cell-based; conditions: up to 50 μM, Aβ25-35 5 μM
Method: Compound 10h was selected to study the neuroprotective ability using PC12 cell injury induced by Aβ25–35 by MTT assay.
MTT reduction assay was used to evaluate the neuroprotective effect of compound 10h on neuronal PC12 cell damage induced by Aβ25-35. The cells were grown in monolayer culture on collagen-coated plates at 37 °C in a humidified atmosphere of 5% CO2. Neuronal PC12 cells were plated at a density of 5 × 10^5 cells/well on 96-well plates. The cells were pre-incubated with compound 10h for 3 h before human Aβ 25–35 (final concentration of 5 μM) was added. After 24 h, 90 μL the medium was taken out and 20 μL of MTT (0.5 mg/ml dissolved in RPMI containing phenol red) was added and incubated for an additional 2 h at 37 °C. The absorbance (A570 nm) was measured using a Bio-Rad microplate reader (Model 680, Bio-Rad). The details were reported in our previous work.

neuronal cell line = test system: neuronal cell line; design: method as in PMID 29107423; conditions: cited from earlier work

Compound	IC50 (BuChE [1])	IC50 (AChE [2])	also measured
CN(C)/C=C/C(=O)c1cc2ccc(OCc3cn(Cc4ccc(F)cc4)nn3)cc2oc1=O [Compound 10g, (E)-3-(3-(Dimethylamino)acryloyl)-7-((1-(4-fluorobenzyl)-1H-1,2,3-triazol-4-yl)methoxy)-2H-chromen-2-one]	> 100 µM	> 100 µM	
CN(C)/C=C/C(=O)c1cc2ccc(OCc3cn(Cc4ccc(Cl)cc4)nn3)cc2oc1=O [Compound 10j, (E)-7-((1-(4-Chlorobenzyl)-1H-1,2,3-triazol-4-yl)methoxy)-3-(3-(dimethylamino)acryloyl)-2H-chromen-2-one]	> 100 µM	> 100 µM	
CN(C)CCC(=O)c1ccc(-c2ccc(C(=O)CCN(C)C)cc2)cc1 [compound D]			IC50 (BuChE [3]): 0.32 µM; IC50 (AChE [4]): 19.9 µM
Clc1ccc(Cn2cc(CSc3nnc(-c4ccccc4)c(-c4ccccc4)n3)nn2)cc1 [compound C]			IC50 (BuChE [3]): 6.41 µM
CN(C)/C=C/C(=O)c1cc2ccc(OCc3cn(Cc4ccccc4Cl)nn3)cc2oc1=O [Compound 10i, (E)-7-((1-(2-Chlorobenzyl)-1H-1,2,3-triazol-4-yl)methoxy)-3-(3-(dimethylamino)acryloyl)-2H-chromen-2-one]	> 100 µM	> 100 µM	
CN(C)/C=C/C(=O)c1cc2ccc(OCc3cn(Cc4cccc(F)c4)nn3)cc2oc1=O [Compound 10f, (E)-3-(3-(Dimethylamino)acryloyl)-7-((1-(3-fluorobenzyl)-1H-1,2,3-triazol-4-yl)methoxy)-2H-chromen-2-one]	59.58 ± 0.05 µM	> 100 µM	
CN(C)/C=C/C(=O)c1cc2ccc(OCc3cn(Cc4cccc(Br)c4)nn3)cc2oc1=O [Compound 10l, (E)-7-((1-(3-Bromobenzyl)-1H-1,2,3-triazol-4-yl)methoxy)-3-(3-(dimethylamino)acryloyl)-2H-chromen-2-one]	65.96 ± 0.004 µM	> 100 µM	
O=C(NCc1cc[n+](Cc2cccc(F)c2)cc1)c1cc2ccccc2oc1=O [compound A]			IC50 (BuChE [3]): 12.2 µM
Nc1c2c(nc3ccccc13)CCCC2 [Tacrine, reference compound]			inhibition at 100 µM [5]: 6.7 ± 0.9%; inhibition at 10 µM (Aβ1-42): 7.6 ± 1.4%
Cc1ccc(Cn2cc(COc3ccc4cc(C(=O)/C=C/N(C)C)c(=O)oc4c3)nn2)cc1 [Compound 10c, (E)-3-(3-(Dimethylamino)acryloyl)-7-((1-(4-methylbenzyl)-1H-1,2,3-triazol-4-yl)methoxy)-2H-chromen-2-one]	> 100 µM	> 100 µM	
CN(C)/C=C/C(=O)c1cc2ccc(OCc3cn(Cc4ccccc4)nn3)cc2oc1=O [Compound 10a, (E)-7-((1-Benzyl-1H-1,2,3-triazol-4-yl)methoxy)-3-(3-(dimethylamino)acryloyl)-2H-chromen-2-one]	34.41 ± 0.23 µM	> 100 µM	
COc1ccc(-c2cc3ccc(OCCCn4cc(CNC(=O)CCCCC5CCSS5)nn4)cc3oc2=O)cc1OC (centres unmarked) [compound F]			Aß self aggregation inhibition (Aβ [6]): 51.2%
Cc1ccccc1Cn1cc(COc2ccc3cc(C(=O)/C=C/N(C)C)c(=O)oc3c2)nn1 [Compound 10b, (E)-3-(3-(Dimethylamino)acryloyl)-7-((1-(2-methylbenzyl)-1H-1,2,3-triazol-4-yl)methoxy)-2H-chromen-2-one]	35.73 ± 0.21 µM	> 100 µM	
CN(C)/C=C/C(=O)c1cc2ccc(OCc3cn(Cc4ccc(Br)cc4)nn3)cc2oc1=O [Compound 10m, (E)-7-((1-(4-Bromobenzyl)-1H-1,2,3-triazol-4-yl)methoxy)-3-(3-(dimethylamino)acryloyl)-2H-chromen-2-one]	> 100 µM	> 100 µM	
CN(C)/C=C/C(=O)c1cc2ccc(OCc3cn(Cc4ccccc4F)nn3)cc2oc1=O [Compound 10e, (E)-3-(3-(Dimethylamino)acryloyl)-7-((1-(2-fluorobenzyl)-1H-1,2,3-triazol-4-yl)methoxy)-2H-chromen-2-one]	> 100 µM	> 100 µM	
Cc1cc(=O)oc2cc(OCCCCSC(=S)N3CCCCC3)ccc12 [compound E]			Aß aggregation inhibition (Aβ [7]): 40.19%
CN(C)/C=C/C(=O)c1cc2ccc(OCc3cn(Cc4ccccc4Br)nn3)cc2oc1=O [Compound 10k, (E)-7-((1-(2-Bromobenzyl)-1H-1,2,3-triazol-4-yl)methoxy)-3-(3-(dimethylamino)acryloyl)-2H-chromen-2-one]	> 100 µM	> 100 µM	
CN(C)/C=C/C(=O)c1cc2ccc(OCc3cn(Cc4ccc(F)c(F)c4)nn3)cc2oc1=O [Compound 10h, (E)-7-((1-(3,4-Difluorobenzyl)-1H-1,2,3-triazol-4-yl)methoxy)-3-(3-(dimethylamino)acryloyl)-2H-chromen-2-one]	21.7 ± 0.57 µM	> 100 µM	metal chelating ability (in words) ([8]; Fe2+, Cu2+, Zn2+): able to chelate biometals; UV absorption peaks after interaction with Cu2+ ([8]; methanol, 20 µM each, 30 min): 303.5 nm and 382.4 nm; UV absorption peaks after interaction with Fe2+ ([8]; methanol, 20 µM each, 30 min): 303.5 nm and 390.9 nm; UV absorption peaks after interaction with Zn2+ ([8]; methanol, 20 µM each, 30 min): 299.2 nm and 388.7 nm; UV absorption peaks of compound alone ([8]; methanolic solution 20 µM): 309.9 nm and 386.7 nm; inhibition at 100 µM [5]: 29.4 ± 1.5%; inhibition at 10 µM (Aβ1-42): 32.6 ± 2%; inhibition pattern (Lineweaver-Burk plot) (BuChE [9]; BuChE, inhibitor 0, 10.7, 42.9, 85.8 µM): mixed-type inhibition; Ki (BuChE [9]; from secondary plot of slopes vs inhibitor concentration, substrate butyrylthiocholine): 38.3 µM; neuroprotective effect on Aβ-induced PC12 cell injury (PC12 cells): no neuroprotective effect
COc1cccc(Cn2cc(COc3ccc4cc(C(=O)/C=C/N(C)C)c(=O)oc4c3)nn2)c1 [Compound 10d, (E)-3-(3-(Dimethylamino)acryloyl)-7-((1-(3-methoxybenzyl)-1H-1,2,3-triazol-4-yl)methoxy)-2H-chromen-2-one]	23.44 ± 0.07 µM	> 100 µM	
COc1ccc(Cn2cc(COc3ccc4ccc(=O)oc4c3)nn2)cc1 [compound B]			IC50 (BuChE [3]): 1.1 µM; IC50 (AChE [4]): 3.4 µM
N=c1oc2ccccc2cc1C(=O)Nc1cc(Br)ccc1NCc1cn(CCC2C(=O)c3ccccc3C2=O)nn1 [compound G]			IC50 (neuronal cell line): 7.9 µM
